Patent US6911330B1, “Recombinant secoisolariciciresinol dehydrogensase, and methods of use” (Washington State University Research Foundation, priority 1998, dated 2005)

Tests used:
[1] = target: T1, pinoresinol/lariciresinol reductase (Forsythia intermedia, UniProt P93143); conditions: incubation with (±)-pinoresinols in presence of NADPH; cited from earlier work
T1 construct: host or cells: E. coli, pSBETa vector
T1 sequence (P93143 1-312): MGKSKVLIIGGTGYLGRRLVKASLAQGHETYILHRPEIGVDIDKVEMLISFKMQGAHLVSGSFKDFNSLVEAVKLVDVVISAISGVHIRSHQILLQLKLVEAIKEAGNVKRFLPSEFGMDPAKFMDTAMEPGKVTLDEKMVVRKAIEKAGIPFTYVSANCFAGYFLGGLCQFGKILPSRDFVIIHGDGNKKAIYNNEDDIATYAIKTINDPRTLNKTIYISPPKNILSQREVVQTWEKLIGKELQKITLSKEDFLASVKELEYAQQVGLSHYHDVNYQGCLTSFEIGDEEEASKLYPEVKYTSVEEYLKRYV

[2] = target: HIV reverse transcriptase (Human immunodeficiency virus type 1 group M subtype B, UniProt P04585); conditions: cited from earlier work
cAMP-phosphodiesterase = conditions: cited from earlier work
[3] = target: T2, secoisolariciresinol dehydrogenase (Forsythia intermedia, UniProt Q94KL7, F122L/G175A/I11F); test: Dehydrogenase activity of recombinant enzyme expressed in E. coli; format: biochemical; conditions: crude supernate of E. coli expressing DEHY133
T2 construct: The dehydrogenase coding region was also excised using the Nde I sites at the 5′ and 3′ ends and cloned into the SBET vector; made in house; host or cells: E. coli B834(DE3), SBET vector
Method: (§1) Secoisolarciresinol dehydrogenase activity was assayed by monitoring the formation of (−)-[9′-^3H2]matairesinol. Each assay consisted of NAD (50 mM in 0.1 M potassium phosphate buffer, pH 7, 5 μl), (±)-[9,9′-^3H2]secoisolariciresinols (28 nM, 130 MBq/mmol in ethanol, 5 μl) and buffer (50 mM Tris-HCl, pH 8.8, 470 μl ). The enzymatic reaction was initiated by addition of the enzyme preparation (20 μl). After 1 h incubation at 30° C. with shaking, the mixture was extracted with EtOAc (500 μl ×2) containing unlabelled (±)-matairesinols (200 μg) as radiochemical carriers. After centrifugation (13,800×g, 5 min) the EtOAc solubles were removed, evaporated to dryness in vacuo, reconstituted in MeOH:3% acetic acid in H2O (1:1, 200 μl), and an aliquot (20 μl) subjected to reversed-phase column chromatography. The elution conditions were as follows: linear gradient acetonitrile/3% acetic acid in H2O from 10:90 to 30:70 between 0 and 35 min; then to 5:95 in 5 min and finally isocratic at 5:95 for 5 min, at a flow rate of 1 ml min^−1, and detection at 280 nm. Fractions corresponding to matairesinol were individually collected, aliquots removed for liquid scintillation counting, and the remainder freeze-dried.
(§2) [9′-^3H2]Matairesinol (0.5 kBq), collected after reversed-phase column chromatography, was reduced with LiAlH4 to give [9′-^3H2]secoisolariciresinol (0.26 kBq).
(§3) The E. coli culture containing the dehydrogenase clone was grown at 37° C. in 25 ml of SOC Kn50 medium to an O.D. of 0.5. To this was added IPTG to give a final concentration of 0.5 mM and the culture was grown at 18° C. for an additional 20 h. The cells were pelleted at 600×g 4° C. 12 min, resuspended in 5 ml of 20 mM Tris-HCl pH 8.0, 5 mM DTT buffer and repelleted. The final bacterial pellet was resuspended in 200 μL of the above buffer and sonicated 4×15 sec using a Braun-Sonic 2000 sonicator set at maximal output of −0.64. The sample was then centrifuged 20,800 ×g 4° C. 15 min and the crude supernate was assayed for dehydrogenase activity. […] The clone SMDEHY631 (SEQ ID NO:9) was also expressed in E. coli in the foregoing manner.

HIV-1 = conditions: cited from earlier work
[4] = target: T3, secoisolariciresinol dehydrogenase (Forsythia intermedia, UniProt Q94KL7); test: Dehydrogenase activity of recombinant enzyme expressed in E. coli; format: biochemical; conditions: protein produced in E. coli
T3 construct: The dehydrogenase coding region was also excised using the Nde I sites at the 5′ and 3′ ends and cloned into the SBET vector; made in house; host or cells: E. coli B834(DE3), SBET vector
Method: as §1, §2, §3

Molecule: COc1cc(C2OCC3C(c4ccc(O)c(OC)c4)OCC23)ccc1O (single isomer, unassigned; (+)) [(+)-pinoresinol]
- served as substrate of recombinant pinoresinol/lariciresinol reductase [1]: served as substrates

Molecule: COc1cc(C[C@H]2CO[C@H](c3ccc(O)c(OC)c3)[C@H]2CO)ccc1O [(+)-lariciresinol]
- served as substrate of recombinant pinoresinol/lariciresinol reductase [1]: served as substrates

Molecule: COc1cc(C[C@H]2C(=O)OC[C@@H]2Cc2ccc(OC)c(OC)c2)ccc1O [(−)-arctigenin]
- effectiveness against HIV due to reverse transcriptase inhibitory activity [2]: effective against HIV

Molecule: COc1cc(C[C@H]2COC(=O)[C@@H]2Cc2ccc(O)c(OC)c2)ccc1O [matairesinol]
- inhibition of cAMP-phosphodiesterase (cAMP-phosphodiesterase): inhibit

Molecule: CC(Cc1ccc(O)c(O)c1)C(C)Cc1ccc(O)c(O)c1 (stereo not shown) [nordihydroguaiaretic acid]
- effectiveness against HIV due to reverse transcriptase inhibitory activity [2]: effective against HIV

Molecule: (+)-secoisolariciresinol [(+)-antipode of secoisolariciresinol]
- conversion as substrate into (−)-lactol and (−)-matairesinol [3]: did not serve as a substrate

Molecule: (−)-pinoresinol
- served as substrate of recombinant pinoresinol/lariciresinol reductase [1]: not

Molecule: (−)-secoisolariciresinol
- conversion as substrate into (−)-lactol and (−)-matairesinol [3]: catalyzed the conversion

Molecule: (−)-trachelogenin
- effectiveness against HIV due to reverse transcriptase inhibitory activity [2]: effective against HIV
- inhibition of in vitro replication of HIV-1 (HIV-1): inhibits

B1: SMDEHY133: protein (SEQ ID NO:2) encoded by engineered cDNA clone DEHY133 (SEQ ID NO:1) (protein)
chain: MQLRTAFARRLEGKVALITGGASGIGETTAKLFSQHGAKVAIADVQDELGHSVVEAIGTSNSTYIHCDVTNEDGVKNAVDNTVSTYGKLDIMFSNAGISDPNRPRIIDNEKADFERVLSVNVTGVFLCMKHAARVMIPARSGNIISTASLSSTMGGGSSHAYCGSKHAVLALTRNLAVELGQFGIRVNCLSPFGLPTALGKKFSGIKNEEEFENVINFAGNLKGPKFNVEDVANAALYLASDEAKYVSGHNLFIDGGFSVCNSVIKVFQYPDS
modifications: Forsythia x intermedia
- catalysis of conversion of (−)-secoisolariciresinol into (−)-matairesinol by protein of the clone [4]: catalyzed the stereochemical conversion

B2: SMDEHY631: protein (SEQ ID NO:10) encoded by cDNA clone SEQ ID NO:9 (protein)
chain: MATSQLRTAFARRLEGKVALITGGASGVGEVTAKLFSQHGAKVAIADVQDELGHSVVEAIGLSNSTYIHCDVTNEDGVKNAVDNTVSTYGKLDIMFNNAGISDPYKPRVIDNEKADFERVLSVNVTGVFLFMKHAARIMVPARSGCIISTASLSSTMGGGSSHAYCGSKHAVLGLTRNLAVELGQFGIRVNCLSPFGLPTPLAKKFTGIENDEDLANGIERAGNLKGTKLRIEDVANAALFLASDEAQYVSGQNLFIDGGFSVCNSAIKLFQYPDS
modifications: Forsythia x intermedia
- catalysis of conversion of (−)-secoisolariciresinol into (−)-matairesinol by protein of the clone [4]: catalyzed the stereochemical conversion

B3: SMDEHY321: protein (SEQ ID NO:4) encoded by cDNA clone SEQ ID NO:3 (protein)
chain: MAATSQVLTAIARRLEGKVALITGGASGIGETTAKLFSQHGAKVAIADVQDELGHSVVEAIGTSNSTYIHCDVTNEDGVKNAVDNTVSTYGKLDIMFSNAGISDPNRPRIIDNEKADFERVFSVNVTGVFLCMKHAARVMIPARSGNIISTASLSSTMGGGSSHAYCGSKHAVLGLTRNLAVELGQFGIRVNCLSPFGLPTALGKKFSGIKNEEEFENVINFAGNLKGPKFNVEDVANAALYLASDEAKYVSGHNLFIDGGFSVCNSVIKVFQYPDS
modifications: Forsythia x intermedia
- catalysis of conversion of (−)-secoisolariciresinol into (−)-matairesinol by protein of the clone [4]: catalyzed the stereochemical conversion
